Measured values reported in patent publication US20230094227A1, “NOVEL FK506 DERIVATIVE AND COMPOSITION COMPRISING SAME FOR PROMOTING HAIR GROWTH” (SEOUL NATIONAL UNIVERSITY R&DB FOUNDATION, priority 2020, published 2023).
Converted amounts (≈) assume the structure as drawn.

Tested on: CD4+ T cells
Assay: in vitro T-cell activity assay (CD4+ T cell proliferation by CTV intensity, flow cytometry)
Assay type: cell-based, B6J mice
Settings: CD3/CD28-activated mouse spleen CD4+ T cells, 72 hours culture; for IC50: Mus musculus, CD4+ T, 72 h, read-out: Immunosuppression IC50
Description: The degree of decrease in immunosuppressive activity of the four novel compounds was investigated by using the conventional in vitro T-cell activity assay (J. Immunol. 143: 718-726, 1989). The division of CD4+ T cells is an indicator that an immune response is taking place, and when CD4+ T cells are stained with Cell Trace™ Violet (CTV) and the cells divide according to the immune response and the T cells proliferate, a phenomenon in which the CTV retention of each cell decreases appears, and thus, the degree of immunosuppressive activity was investigated using this as an indicator.
Single cells were isolated from the spleen of 6 to 8 week-old B6J mice, and CD4+ T cells were isolated using the MagniSort® Mouse CD4 T cell Enrichment Kit (eBioscience). CD4+ T cells were stained with Cell Trace™ Violet (CTV) Cell Proliferation Kit (Molecular Probes), and FK506 or the four novel compounds were added to a concentration of 0.01 ng/mL, 0.1 ng/mL, 1 ng/mL, 10 ng/mL, 100 ng/mL or […], and then, it was cultured for 72 hours. Dynabeads® Mouse T-Activator CD3/CD28 (Gibco) was used for T cell activation. As a control group, non-activated T cells were used. After culture, CTV intensity was analyzed by flow cytometry.

| SMILES | IC50 [µg/mL] | Immunosuppression IC50 [µg/mL] |
| --- | --- | --- |
| CCC[C@@H]1/C=C(\C)C[C@H](C)C[C@H](OC)[C@H]2O[C@@](O)(CC(=O)N3CCC[C@H]3C(=O)O[C@H](/C(C)=C/[C@@H]3CC[C@@H](O)[C@H](O)C3)[C@H](C)[C@@H](O)CC1=O)[C@H](C)C[C@@H]2OC [9-deoxo-31-O-demethyl-36,37-dihydro-prolylFK506] | 5.56 (≈ 7.27 µM) |  |
| CCC[C@@H]1/C=C(\C)C[C@H](C)C[C@H](OC)[C@H]2O[C@@](O)(CC(=O)N3CCC[C@H]3C(=O)O[C@H](/C(C)=C/[C@@H]3CC[C@@H](O)[C@H](OC)C3)[C@H](C)[C@@H](O)CC1=O)[C@H](C)C[C@@H]2OC [9-deoxo-36,37-dihydro-prolylFK506] | 3.09 (≈ 3.97 µM) |  |
| CC[C@@H]1/C=C(\C)C[C@H](C)C[C@H](OC)[C@H]2O[C@@](O)(CC(=O)N3CCC[C@H]3C(=O)O[C@H](/C(C)=C/[C@@H]3CC[C@@H](O)[C@H](O)C3)[C@H](C)[C@@H](O)CC1=O)[C@H](C)C[C@@H]2OC [9-deoxo-prolylFK520] |  | 3.2888 |
| C=CC[C@@H]1/C=C(\C)C[C@H](C)C[C@H](OC)[C@H]2O[C@@](O)(C(=O)C(=O)N3CCCC[C@H]3C(=O)O[C@H](/C(C)=C/[C@@H]3CC[C@@H](O)[C@H](OC)C3)[C@H](C)[C@@H](O)CC1=O)[C@H](C)C[C@@H]2OC [FK506] | 2.7e-05 (≈ 3.36e-05 µM) |  |
